Data: patent US5272136A, “5-0-α-D-Glucopyranosyl-L-ascorbic acid, and its preparation and uses” (priority 1991, dated 1993)
Blank lines part the entries; values can stand above or below the compound they belong to.

How the values were obtained:
[1] = Hydrolysis under a relatively-high acidic- and temperature-condition; assay type: physicochemical; details: relative to the substances X and Y; pH 1.7, 100° C.
Experimental: Thus, we removed 2-O-α-D-glucopyranosyl-L-ascorbic acid by using this hydrolysis.
The method was as follows: The second mother liquor was adjusted to give a concentration of 25%, adjusted to pH 1.7 by the addition of hydrochloric acid, and allowed to predominantly hydrolyze 2-O-α-D-glucopyranosyl-L-ascorbic acid at 100° C. Thereafter, the resultant solution was cooled and fed to a column packed with an anion exchange resin (OH^- -form) to adsorb the substances X and Y thereon, and the column was washed with water and fed with 0.5N hydrochloric acid to obtain a solution containing the substances X and Y.

physchem = assay type: physicochemical; details: for Stability, residual percentage: 0 min, 70 uM; for remaining at 21 h, 70 µM / remaining at 0.5 h, 70 µM / remaining at 1 h, 70 µM / remaining at 0.25 h, 70 µM: aqueous solution
Experimental: (h) Stability: The stability of the substance X was compared with L-ascorbic acid as a control. Each specimen was adjusted to give a concentration of 70 μM and to pH 7.0 or pH 2.0, and the resultant each solution was placed in a cell for an absorption spectrophotometer. The cell was set to the absorption spectrophotometer and kept at 20° C., followed by determining at a prescribed time interval an absorbance at 265 nm with the solution of pH 7.0 and an absorbance at 243 nm with the solution of pH 2.0, and comparing the residual percentage (%) of each specimen.

[2] = Coloring reaction / direct reducing activity; assay type: physicochemical
7 week-old dd mice = test: Acute toxicity test, oral; assay type: in vivo; details: up to 5 g of the specimen, a higher dose was difficult
Text: A high-purity 5-O-α-D-glucopyranosyl-L-ascorbic acid, prepared by the method in Experiment 1, was orally administered to 7 week-old dd mice for acute toxicity test. As a result, no mouse died when administered with up to 5 g of the specimen, and a higher dose was difficult.

[3] = tested on: enzyme of a small intestinal membrane; test: Hydrolysis by enzyme of small intestinal membrane; assay type: in vitro ADME; details: method of Okada et al.
Solubility in solvents = assay type: physicochemical

Structure (SMILES): O=C1O[C@H]([C@@H](O)CO)C(O)=C1O[C@H]1O[C@H](CO)[C@@H](O)[C@H](O)[C@H]1O [2-O-α-D-glucopyranosyl-L-ascorbic acid]
Hydrolysis under relatively-high acidic- and temperature-condition [1]: more readily hydrolyzed than the substances X and Y

Stability, residual percentage (physchem; pH 2): 100% | Stability, residual percentage (physchem; pH 7): 100% | remaining at 21 h, 70 µM (physchem; pH 2): 10% | remaining at 0.5 h, 70 µM (physchem; pH 7): 20% | remaining at 1 h, 70 µM (physchem; pH 7): 8% | remaining at 21 h, 70 µM (physchem; pH 7): 2%
Structure (SMILES): O=C1O[C@H]([C@@H](O)CO)C(O)=C1O [AsA, L-ascorbic acid]

Structure (SMILES): O=C1O[C@H]([C@H](CO)O[C@H]2O[C@H](CO)[C@@H](O)[C@H](O)[C@H]2O)C(O)=C1O [substance X, 5-O-α-D-glucopyranosyl-L-ascorbic acid]
Reducing activity (decoloring of 2,6-dichlorophenolindophenol) [2]: exhibits a reducing activity, and decolors 2,6-dichlorophenolindophenol | Acute toxicity, mortality (7 week-old dd mice): no mouse died | Stability compared with L-ascorbic acid (physchem): stabler than L-ascorbic acid | Stability, residual percentage (physchem; pH 2): 100% | Stability, residual percentage (physchem; pH 7): 100% | remaining at 0.25 h, 70 µM (physchem; pH 2): 99% | remaining at 0.5 h, 70 µM (physchem; pH 2): 98% | remaining at 1 h, 70 µM (physchem; pH 2): 90% | remaining at 21 h, 70 µM (physchem; pH 2): 50% | remaining at 0.25 h, 70 µM (physchem; pH 7): 58% | remaining at 0.5 h, 70 µM (physchem; pH 7): 35% | remaining at 1 h, 70 µM (physchem; pH 7): 16% | remaining at 21 h, 70 µM (physchem; pH 7): 6% | Hydrolysis by enzyme of small intestinal membrane [3]: readily hydrolyzed | Solubility in 0.1M acetic acid (Solubility in solvents; 0.1M acetic acid): readily soluble | Solubility in 0.1N sodium hydroxide (Solubility in solvents; 0.1N sodium hydroxide): readily soluble | Solubility in benzene (Solubility in solvents; benzene): insoluble | Solubility in chloroform (Solubility in solvents; chloroform): insoluble | Solubility in ethanol (Solubility in solvents; ethanol): slightly soluble | Solubility in ether (Solubility in solvents; ether): insoluble | Solubility in methanol (Solubility in solvents; methanol): slightly soluble | Solubility in water (Solubility in solvents; water): readily soluble

Hydrolysis by enzyme of small intestinal membrane [3]: not substantially hydrolyzed
Structure (SMILES): O=C1O[C@H]([C@@H](O)CO[C@H]2O[C@H](CO)[C@@H](O)[C@H](O)[C@H]2O)C(O)=C1O [substance Y, 6-O-α-D-glucopyranosyl-L-ascorbic acid, reference compound]
